In brackets after ≈: the same amount, converted by molar mass. Read-outs that look alike come from different tables or passages of the source.
Columns and labels:
[1] = system: M. avium ssp. avium CNCTC My 80/72 (ATCC 15769); assay: Antimycobacterial microplate alamar blue assay, M. avium; type: cell-based, Mycobacterium avium; conditions: Mycobacterium avium, ATCC15769, pH 6.6, Middlebrook 7H9 broth pH 6.6, alamar blue; read-out: Antimycobacterial Activity MIC M. avium
[2] = system: Mycobacterium tuberculosis H37Rv CNCTC My 331/88 (ATCC 27294); assay: Antimycobacterial microplate alamar blue assay, M. tuberculosis H37Rv; type: cell-based; conditions: Mycobacterium tuberculosis
[3] = system: Mycobacterium smegmatis DSM 43465 (ATCC 607); assay: Antimycobacterial microdilution assay, M. smegmatis; type: cell-based; conditions: for MIC: Mycolicibacterium smegmatis
[4] = system: Mycobacterium aurum DSM 43999 (ATCC 23366); assay: Antimycobacterial microdilution assay, M. aurum; type: cell-based; conditions: Middlebrook 7H9 broth, resazurin after 72 hours; for MIC: Mycolicibacterium aurum, 72 h
[5] = in vitro; conditions: human
[6] = system: M. kansasii CNCTC My 235/80 (ATCC 12478); assay: Antimycobacterial microplate alamar blue assay, M. kansasii; type: cell-based, Mycobacterium kansasii; conditions: Mycobacterium kansasii
[7] = pH 6.6, Middlebrook 7H9 broth pH 6.6, alamar blue, read-out: Antimycobacterial Activity MIC Mtb H37Rv
[8] = 48 h, Middlebrook 7H9 broth, resazurin after 48 hours, read-out: Antimycobacterial Activity MIC M. smeg
[9] = ATCC12478, pH 6.6, Middlebrook 7H9 broth pH 6.6, alamar blue, read-out: Antimycobacterial Activity MIC M. kansasii
[10] = Table 4 comparison, title compounds, read-out: Antimycobacterial Activity MIC against Mtb H37Rv, Sulfonamide
[11] = ATCC12478, molar value printed beside μg/mL in text, read-out: MIC M. kansasii

SMILES	MIC [1]	MIC [2, 7]	MIC [3, 8]	MIC [4]	IC50 at 24 h [5]	MIC [6, 9]	MIC [2, 10]	melting point	MIC [6, 11]	Antimycobacterial Activity MIC M. smeg ([3]; Middlebrook 7H9 broth, resazurin after 48 hours)	Antimycobacterial Activity MIC M. aurum [4]	MIC ([3]; read-out: MIC M. smegmatis)
Cc1cc(C)c(S(=O)(=O)Nc2cnccn2)c(C)c1 [Compound 9a, 2,4,6-trimethyl-N-(pyrazin-2-yl)benzenesulfonamide]	> 100 µg/mL	> 100 µg/mL	125 µg/mL	≥ 500 µg/mL	> 250 µM	> 100 µg/mL	–	–	–	–	–	–
O=S(=O)(Nc1cncc(Cl)n1)c1ccccc1 [Compound 1b, N-(6-chloropyrazin-2-yl)benzenesulfonamide]	> 100 µg/mL	50 µg/mL (≈ 185 µM)	250 µg/mL	≥ 500 µg/mL	731 µM	100 µg/mL	50 µg/mL (≈ 185 µM)	198 to 200.2 °C	–	–	–	–
CC(=O)Nc1ccc(S(=O)(=O)Nc2cncc(Cl)n2)cc1 [Compound 2b, N-(4-(N-(6-chloropyrazin-2-yl)sulfamoyl)phenyl)acetamide]	> 100 µg/mL	> 100 µg/mL	250 µg/mL	≥ 500 µg/mL	> 500 µM	25 µg/mL	–	–	76.5 µM	–	–	–
CO[C@H]1/C=C/O[C@@]2(C)Oc3c(C)c(O)c4c(O)c(c(/C=N/N5CCN(C)CC5)c(O)c4c3C2=O)NC(=O)/C(C)=C\C=C\[C@H](C)[C@H](O)[C@@H](C)[C@@H](O)[C@@H](C)[C@H](OC(C)=O)[C@@H]1C [RFM, reference compound]	–	–	12.5 to 25 µg/mL	0.78 to 1.56 µg/mL (≈ 0.948 to 1.9 µM)	–	–	–	–	–	25 µg/mL	1.56 µg/mL	–
Nc1ccc(S(=O)(=O)Nc2cnc3ccccc3n2)cc1 [Sulfaquinoxaline, reference compound]	50 µg/mL (≈ 166 µM)	3.13 µg/mL (≈ 10.4 µM)	125 µg/mL	250 µg/mL (≈ 832 µM)	–	12.5 µg/mL	–	–	–	–	–	–
O=S(=O)(Nc1cncc(Cl)n1)c1ccc(Br)cc1 [Compound 7b, 4-bromo-N-(6-chloropyrazin-2-yl)benzenesulfonamide]	> 100 µg/mL	100 µg/mL (≈ 287 µM)	125 µg/mL	125 µg/mL (≈ 359 µM)	308 µM	50 µg/mL	–	176.5 to 179.3 °C	–	–	–	–
CC(=O)Nc1ccc(S(=O)(=O)Nc2cnccn2)cc1 [Compound 2a, N-(4-(N-(pyrazin-2-yl)sulfamoyl)phenyl)acetamide]	> 100 µg/mL	> 100 µg/mL	≥ 500 µg/mL	≥ 500 µg/mL	> 500 µM	25 µg/mL	–	243.8 to 245.6 °C	85.5 µM	–	–	–
O=S(=O)(Nc1cnccn1)c1ccc2ncccc2c1 [Compound 14a, N-(pyrazin-2-yl)quinoline-6-sulfonamide]	> 100 µg/mL	> 100 µg/mL	≥ 500 µg/mL	≥ 500 µg/mL	> 250 µM	100 µg/mL	–	249.4 to 252 °C	–	–	–	–
O=[N+]([O-])c1ccc(S(=O)(=O)Nc2cncc(Cl)n2)cc1 [Compound 3b, N-(6-chloropyrazin-2-yl)-4-nitrobenzenesulfonamide]	> 100 µg/mL	> 100 µg/mL	250 µg/mL	125 µg/mL (≈ 397 µM)	> 1000 µM	> 100 µg/mL	–	–	–	–	–	–
O=[N+]([O-])c1ccc(S(=O)(=O)Nc2cnccn2)cc1 [Compound 3a, 4-nitro-N-(pyrazin-2-yl)benzenesulfonamide]	> 100 µg/mL	> 100 µg/mL	> 500 µg/mL	> 500 µg/mL	> 1000 µM	> 100 µg/mL	–	230.8 to 231.8 °C	–	–	–	–
O=S(=O)(Nc1cnccn1)c1ccc2ccccc2c1 [Compound 13a, N-(pyrazin-2-yl)naphthalene-2-sulfonamide]	> 100 µg/mL	> 100 µg/mL	62.5 µg/mL	≥ 500 µg/mL	> 500 µM	50 µg/mL	–	223.5 to 224.7 °C	–	–	–	219 µM
O=S(=O)(Nc1cncc(Cl)n1)c1ccc2c(c1)OCCO2 [Compound 11b, N-(6-chloropyrazin-2-yl)-2,3-dihydrobenzo[b][1,4]dioxine-6-sulfonamide]	> 100 µg/mL	> 100 µg/mL	≥ 500 µg/mL	≥ 500 µg/mL	778 µM	25 µg/mL	–	244.6 to 247 °C	76.3 µM	–	–	–
COc1ccc(S(=O)(=O)Nc2cnccn2)cc1 [Compound 6a, 4-methoxy-N-(pyrazin-2-yl)benzenesulfonamide]	> 100 µg/mL	> 100 µg/mL	≥ 500 µg/mL	≥ 500 µg/mL	> 1000 µM	> 100 µg/mL	> 100 µg/mL	–	–	–	–	–
